Results taken from ChEMBL document CHEMBL1201862, “PubChem BioAssay data set” (2004).
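The compound was tested at five concentrations on cells cultured in 96-well plates, with a 48-hour exposure period. GI50 is the concentration that inhibits growth by half.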 Activity calls are given as the source filed them. Cut-off read from the data, not from the text of the source: active = GI50 up to about 1.1 µM and inactive = higher.

Legend:
Experiment in all cases: NCI tumour cell line growth inhibition, 48 h
TK-10 = tested on: TK-10
M14 = tested on: M14
DLD-1 = tested on: DLD-1
HOP-92 = tested on: HOP-92
UACC-257 = tested on: UACC-257
HCT-15 = tested on: HCT-15
DMS-273 = tested on: DMS-273
XF498 = tested on: XF498
A498 = tested on: A498
HOP-18 = tested on: HOP-18
DU-145 = tested on: DU-145
CCRF-CEM = tested on: CCRF-CEM
A549 = tested on: A549
MDA-MB-435 = tested on: MDA-MB-435
SK-MEL-5 = tested on: SK-MEL-5
PC-3 = tested on: PC-3
Hs-578T = tested on: Hs-578T
LOX IMVI = tested on: LOX IMVI
KM-20L2 = tested on: KM-20L2
SW-620 = tested on: SW-620

| Structure (SMILES) | GI50 (TK-10) | GI50 (M14) | GI50 (DLD-1) | GI50 (HOP-92) | GI50 (UACC-257) | GI50 (HCT-15) [µM] | GI50 (DMS-273) | GI50 (XF498) | GI50 (A498) | GI50 (HOP-18) | GI50 (DU-145) | GI50 (CCRF-CEM) | GI50 (A549) | GI50 (MDA-MB-435) | GI50 (SK-MEL-5) | GI50 (PC-3) | GI50 (Hs-578T) | GI50 (LOX IMVI) | GI50 (KM-20L2) | GI50 (SW-620) |
| --- | --- | --- | --- | --- | --- | --- | --- | --- | --- | --- | --- | --- | --- | --- | --- | --- | --- | --- | --- | --- |
| COc1cc(/C=C/C(=O)Oc2ccc(NC(C)=O)cc2)ccc1C(=O)OCc1ccccc1 | > 95.9 µM (inactive) | > 100 µM (inactive) | > 100 µM (inactive) | 74.3 µM (inactive) | > 100 µM (inactive) | > 100 | 78 µM (inactive) | 25.6 µM (inactive) | 60.3 µM (inactive) | > 100 µM (inactive) | > 77.3 µM (inactive) | 64.3 µM (inactive) | > 97.1 µM (inactive) | > 100 µM (inactive) | > 100 µM (inactive) | > 100 µM (inactive) | > 100 µM (inactive) | 67.8 µM (inactive) | > 100 µM (inactive) | > 100 µM (inactive) |
| CCCCN(CCCC)C(=O)C(=O)C(C#N)c1ccc(C)cc1 (centres undefined) | > 100 µM (inactive) | > 100 µM (inactive) | > 100 µM (inactive) | > 100 µM (inactive) | > 100 µM (inactive) | > 100 | > 100 µM (inactive) | > 100 µM (inactive) | > 100 µM (inactive) | > 100 µM (inactive) | – | > 100 µM (inactive) | > 100 µM (inactive) | – | > 100 µM (inactive) | – | – | > 100 µM (inactive) | > 100 µM (inactive) | > 100 µM (inactive) |
| CCCc1c(C(=O)OCC)[nH]c(-c2ccc(-c3[nH]c(C(=O)OCC)c(CCC)c3C(=O)OCC)o2)c1C(=O)OCC | > 100 µM (inactive) | > 100 µM (inactive) | > 100 µM (inactive) | > 100 µM (inactive) | > 100 µM (inactive) | > 100 | > 100 µM (inactive) | > 100 µM (inactive) | > 100 µM (inactive) | > 100 µM (inactive) | – | > 100 µM (inactive) | > 100 µM (inactive) | – | > 100 µM (inactive) | – | – | > 100 µM (inactive) | > 100 µM (inactive) | > 100 µM (inactive) |
| Cn1cnc([N+](=O)[O-])c1Sc1nc2cc([N+](=O)[O-])ccc2[nH]1 | 19.5 µM (inactive) | 34.4 µM (inactive) | 11.5 µM (inactive) | 17.3 µM (inactive) | 14.3 µM (inactive) | 13.5 | 1.73 µM (inactive) | 10.8 µM (inactive) | 29.6 µM (inactive) | 45.8 µM (inactive) | – | 15.4 µM (inactive) | 29.3 µM (inactive) | – | 15.5 µM (inactive) | – | – | 24.7 µM (inactive) | 24.8 µM (inactive) | 27.9 µM (inactive) |
| Cc1cc(C(C)(C)C)cc(Cc2cc(C(C)(C)C)cc(Cc3cc(C(C)(C)C)cc(C)c3O)c2O)c1O | 16.3 µM (inactive) | 7.26 µM (inactive) | 6.05 µM (inactive) | 2.94 µM (inactive) | 8.45 µM (inactive) | 11.9 | 10.9 µM (inactive) | 1.65 µM (inactive) | 19.5 µM (inactive) | 15.4 µM (inactive) | – | 3.04 µM (inactive) | 5.86 µM (inactive) | – | 10 µM (inactive) | – | – | 7.73 µM (inactive) | 16.1 µM (inactive) | 5.28 µM (inactive) |
